This is an account of results in article PMC6588435 (Cell chemical biology, 2019).

Values after ≈ are worked out from the molar mass of the structure shown. Values joined by “and” are separate entries in the source; they are usually repeats but may differ in a detail not shown here. Equal values may be shown once. Read-outs that look alike come from different tables or passages of the source.

One test concerns Mtb Erdman cells. It counts as cell-based, Mycobacterium tuberculosis.
The test system of another test is Mtb Erdman (ATCC 35801). Kind of test: In vitro susceptibility testing. Format: cell-based, Mycobacterium tuberculosis.
For the next test, the target named is Mtb Rv2671 (Mycobacterium tuberculosis, UniProt P71968). Kind of test: Mtb Rv2671 enzyme inhibition assay. It counts as biochemical.
Test [1] deals with T1, Mtb DHFR (Mycobacterium tuberculosis, UniProt P9WNX1). It counts as binding. The following applies: DSC, with NADPH; control (Mtb DHFR+NADPH) 65 °C.
A further test concerns Mtb cells. The following applies: treatment of Mtb cells; ref Nixon et al. (2014); cited from earlier work.
Test [2] deals with T2, Mtb FDTS (Mycobacterium tuberculosis, UniProt P9WG57). Description: HPLC analysis of Mtb FDTS reaction. Format: biochemical.
The target in test [3] is T1, Mtb DHFR. Kind of test: biochemical.
Test [4] has as its target T2, Mtb FDTS. Description: Mtb FDTS NADPH oxidation assay. Format: biochemical.
Test [5] has as its target T2, Mtb FDTS. Kind of test: Differential scanning calorimetry of Mtb FDTS. The following applies: DSC; control (FDTS, dUMP, FAD) 66.6 °C. (In DSC, transitions show as peaks or steps in heat flow.)
For test [6], the target named is T1, Mtb DHFR. Kind of test: biochemical. This is another data set of the same source.
Where [7] appears, read: read-out: Mtb Rv2671 Ki, 50 μM NADPH.

T2 sequence (P9WG57 whole entry): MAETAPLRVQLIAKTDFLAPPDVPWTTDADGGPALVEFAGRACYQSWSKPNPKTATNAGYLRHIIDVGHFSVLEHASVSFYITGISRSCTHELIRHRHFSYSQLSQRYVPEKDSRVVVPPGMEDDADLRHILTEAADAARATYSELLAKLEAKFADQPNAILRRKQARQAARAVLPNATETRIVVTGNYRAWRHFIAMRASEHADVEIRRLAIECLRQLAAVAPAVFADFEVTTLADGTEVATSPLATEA
T1 sequence (P9WNX1 whole entry): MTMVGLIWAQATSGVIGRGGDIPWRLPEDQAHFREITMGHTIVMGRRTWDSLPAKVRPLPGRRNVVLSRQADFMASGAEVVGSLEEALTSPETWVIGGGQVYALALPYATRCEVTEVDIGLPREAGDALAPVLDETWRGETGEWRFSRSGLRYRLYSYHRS

One may read the MIC as the lowest concentration that inhibits growth of the organism. Turning to `Nc1ccc(C(=O)O)c(O)c1` [PAS, para-aminosalicylic acid], the “reduction of 14C incorporation to the FAME/MAME fraction” value with Mtb Erdman cells (0.36 μg/ml) worked out at 52%. Moreover, in the test on Mtb Erdman cells (TLC of FAME/MAME), the “effect on methoxymycolic acids” value was “significant reduction”. Moreover, the minimal inhibitory concentration (MIC) in the test on Mtb Erdman (ATCC 35801) (Mycobacterium tuberculosis, ATCC35801|ERDMAN, read-out: MIC, WT Mtb) stood at 0.5 µg/mL (≈ 3.27 µM).

As for `CN(Cc1cnc2nc(N)nc(N)c2n1)c1ccc(C(=O)N[C@@H](CCC(=O)O)C(=O)O)cc1` [MTX, Methotrexate], in the test with Mtb Erdman (ATCC 35801) (Mycobacterium tuberculosis, ATCC35801|ERDMAN), the minimal inhibitory concentration (MIC) is above 100 µg/mL.

Usually Ki stands for a measure of affinity in units of concentration, obtained from inhibition or displacement. `CCc1nc(N)nc(N)c1C#C[C@@H](C)c1cc(-c2ccc(C(=O)O)cc2)ccc1OC` [UCP1164] registered an MIC against Mtb Erdman (ATCC 35801) of 0.5 µg/mL (≈ 1.2 µM). Besides, the inhibition constant Ki at Mtb Rv2671 (setting [7]) was 120 ± 8.5 nM.

With `CCc1nc(N)nc(N)c1C#C[C@H](C)c1cc(-c2ccncc2)ccc1OC` [UCP1063], on Mtb DHFR [1], the “Mtb DHFR Tm” value is 71 °C and 71 ± 2.7 °C. This molecule also came in with an MIC in the test with Mtb Erdman (ATCC 35801) of 2 µg/mL (≈ 5.36 µM). Moreover, the inhibitory constant (Ki) on Mtb Rv2671 (setting [7]) was 52 ± 6.2 nM.

As for `CC1(C)N=C(N)N=C(N)N1OCCCOc1cc(Cl)c(Cl)cc1Cl` [WR99210], the “decrease in the concentration of SAM” value in the test on Mtb cells is 20 fold.

Usually koff stands for the first-order rate constant of dissociation. What is called IC50 is the concentration at which inhibition is half-maximal. As for `Nc1nc(=O)c2nc(CNc3ccc(C(=O)NC(CCC(=O)O)C(=O)O)c(O)c3)cnc2[nH]1` (centres unmarked) [PAS-M, 2-[(4-{[(2-amino-4-oxo-1,4-dihydropteridin-6-yl)methyl]amino}-2-hydroxyphenyl)formamido] pentanedioic acid], the “decrease in dTMP levels compared to control” value on Mtb FDTS [2] is on record as ~ 2.5 fold. At Mtb DHFR [3] (read-out: Mtb DHFR koff), the koff was 0.0107 s⁻¹. Moreover, the residence time on Mtb DHFR [3] (read-out: Mtb DHFR tR (residence time)) amounted to 1.5 ± 0.3 min. Further, inhibition on Mtb FDTS [4] was half-maximal at 14400 ± 1500 nM (IC50). The Ki at Mtb Rv2671 was found to be 27500 nM; on Mtb DHFR [6] it was 750 ± 120 nM. Also, the “Mtb FDTS Tm” value on Mtb FDTS [5] stood at 71.9 °C.
